The values below come from US8093209B2, “Methods of suppressing microglial activation and systemic inflammatory responses” (Cognosci, Incorporated, priority 2002, dated 2012).

Data set [1] deals with enriched microglia primary cultures from apoE deficient mouse pups. Nature of the data set: LPS-stimulated nitric oxide (nitrite) secretion by enriched microglia primary cultures. Conditions: peptide 0 μM to 1000 μM, LPS 100 ng/ml, after 48 hours. The class given is cell-based. The protocol: Culture preparation and characterization: Mixed glial cell cultures were prepared from: (a) wildtype (C57B16; Jackson Laboratories) mouse pups; (b) ApoE deficient mutant mouse pups (ApoE-deficient mice), and (c) transgenic mouse pups expressing human ApoE3 but not murine ApoE (ApoE3 mice). See Xu et al., Neurobiol. Dis. 3:229 (1996) regarding the creation and characterization of the transgenic mice. Mixed glial cell cultures were prepared as has been described. See McMillian et al., Neurochem. 58:1308 (1992); Laskowitz et al., J. Neuroimmunol. 76:70 (1997). Briefly, brains were removed from 2-4 day old pups, cleaned of membranes and blood vessels, mechanically dispersed in Ca^+2-free media, and collected by centrifugation. Cells were then plated in DMEM/F12 (containing 10% fetal calf serum, 1% penicillin/streptomycin, Gibco #15070), one brain per 25 cm flask. […]
Nitrite Quantification The production of NO was assessed by measuring the accumulation of nitrite, which was quantified using a calorimetric reaction with Griess reagent (0.1% N-1-naphthylethylenediamine dihydrochloride, 1% sulfanilamide, and 2.5% H3PO4). Absorbance was measured at 570 nm by spectrophotometry. […]
Enriched microglia primary cultures were prepared from the brains of apoE deficient mouse pups as described in Example 1, above. […] Nitric oxide production was assessed as described in Example 1. […]

For data set [2], the system named is primary hippocampal neurons. The note with it: cited from earlier work.

As for “LRKLRKRLL LRKLRKRLL (LRKLRKRLLLRKLRKRLL; fragment of ApoE containing LDL receptor binding site) [SEQ ID NO:3]”, in data set [1], the “nitric oxide secretion by activated microglia” value is reported as “dose-dependent decrease in nitric oxide secretion”. In addition, the neuronal cell death result in data set [2] was “induced neuronal cell death”.
